According to PubChem BioAssay AID248 (DTP/NCI, 2004):
Where “and” joins values, the source holds several entries; their conditions need not be identical. Equal entries are not always repeated. Inconclusive results and toxic doses are left out.

Test system: L1210 leukemia ip in BDF1 mice, survival T/C
Experiment: NCI In Vivo Anticancer Drug Screen. Data for tumor model L1210 Leukemia (intraperitoneal) in B6D2F1 (BDF1) mice
Conditions: endpoint: mean survival time, higher = longer survival
Procedure, shortened: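 Transplantable tumor model; survival measured in treated vs vehicle control mice. Value = treated/control.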

[1] = dose: 50.0 mg/kg/injection, schedule: Q01DX001 (ip), vehicle: saline
[2] = dose: 100.0 mg/kg/injection, schedule: Q01DX001 (ip), vehicle: saline
[3] = dose: 200.0 mg/kg/injection, schedule: Q01DX001 (ip), vehicle: saline
[4] = dose: 400.0 mg/kg/injection, schedule: Q01DX001 (ip), vehicle: saline
[5] = dose: 100.0 mg/kg/injection, schedule: Q04DX003 (ip), vehicle: saline with Tween-80
[6] = dose: 200.0 mg/kg/injection, schedule: Q04DX003 (ip), vehicle: saline with Tween-80
[7] = dose: 400.0 mg/kg/injection, schedule: Q04DX003 (ip), vehicle: saline with Tween-80
[8] = dose: 100.0 mg/kg/injection, schedule: Q01DX009 (ip), vehicle: Klucel (hydroxypropylcellulose) (HPC)
[9] = dose: 200.0 mg/kg/injection, schedule: Q01DX009 (ip), vehicle: Klucel (hydroxypropylcellulose) (HPC)
[10] = dose: 400.0 mg/kg/injection, schedule: Q01DX009 (ip), vehicle: Klucel (hydroxypropylcellulose) (HPC)
[11] = dose: 50.0 mg/kg/injection, schedule: Q01DX009 (ip), vehicle: Klucel (hydroxypropylcellulose) (HPC)
[12] = dose: 100.0 mg/kg/injection, schedule: Q04DX002 (ip), vehicle: Klucel (hydroxypropylcellulose) (HPC)
[13] = dose: 200.0 mg/kg/injection, schedule: Q04DX002 (ip), vehicle: Klucel (hydroxypropylcellulose) (HPC)
[14] = dose: 100.0 mg/kg/injection, schedule: Q01DX009 (ip), vehicle: saline with Tween-80
[15] = dose: 200.0 mg/kg/injection, schedule: Q01DX009 (ip), vehicle: saline with Tween-80
[16] = dose: 6.25 mg/kg/injection, schedule: Q01DX009 (ip), vehicle: saline with Tween-80
[17] = dose: 12.5 mg/kg/injection, schedule: Q01DX009 (ip), vehicle: saline with Tween-80
[18] = dose: 25.0 mg/kg/injection, schedule: Q01DX009 (ip), vehicle: saline with Tween-80
[19] = dose: 400.0 mg/kg/injection, schedule: Q04DX002 (ip), vehicle: Klucel (hydroxypropylcellulose) (HPC)

SMILES: COC(=O)C(NC(C)=O)C(C)C (configuration not stated)
- T/C (dose: 6.25 mg/kg/injection, schedule: Q03HX024 (ip), vehicle: saline): 97 % of control
- T/C (dose: 12.5 mg/kg/injection, schedule: Q03HX024 (ip), vehicle: saline): 96 % of control
- T/C (dose: 25.0 mg/kg/injection, schedule: Q01DX001 (ip), vehicle: saline): 100 % of control
- T/C (dose: 25.0 mg/kg/injection, schedule: Q03HX024 (ip), vehicle: saline): 89 % of control
- T/C [1]: 96 % of control
- T/C (dose: 50.0 mg/kg/injection, schedule: Q03HX024 (ip), vehicle: saline): 89 % of control
- T/C [2]: 101 % of control
- T/C (dose: 100.0 mg/kg/injection, schedule: Q03HX024 (ip), vehicle: saline): 105 % of control
- T/C [3]: 99 % of control
- T/C [4]: 106 % of control

SMILES: CC(O)(c1ccccc1)c1ccccc1
- T/C [1]: 95 % of control
- T/C [2]: 101 % of control
- T/C [5]: 100 % of control
- T/C [3]: 97 % of control
- T/C [6]: 100 % of control
- T/C [4]: 97 % of control
- T/C [7]: 110 % of control

SMILES: CCN(CC)S(=O)(=O)c1ccc(OC)c(N)c1
- T/C [8]: 98 % of control
- T/C (dose: 100.0 mg/kg/injection, schedule: Q04DX003 (ip), vehicle: other): 96 % of control
- T/C [9]: 96 % of control
- T/C (dose: 200.0 mg/kg/injection, schedule: Q04DX003 (ip), vehicle: other): 104 % of control
- T/C [10]: 104 % of control
- T/C (dose: 400.0 mg/kg/injection, schedule: Q04DX003 (ip), vehicle: other): 100 % of control

SMILES: CCc1ccc(NC2=NCCO2)cc1
- T/C (dose: 12.5 mg/kg/injection, schedule: Q04DX003 (ip), vehicle: saline): 112 % of control
- T/C (dose: 25.0 mg/kg/injection, schedule: Q01DX009 (ip), vehicle: Klucel (hydroxypropylcellulose) (HPC)): 100 % of control
- T/C (dose: 25.0 mg/kg/injection, schedule: Q04DX003 (ip), vehicle: saline): 114 % of control
- T/C [11]: 95 % of control
- T/C (dose: 50.0 mg/kg/injection, schedule: Q04DX003 (ip), vehicle: saline): 101 % of control
- T/C (dose: 100.0 mg/kg/injection, schedule: Q04DX003 (ip), vehicle: saline): 102 % of control

SMILES: O=c1cc(Cc2ccc([N+](=O)[O-])cc2)[nH]c(=O)[nH]1
- T/C [1]: 101 % of control
- T/C [2]: 107 % of control
- T/C [3]: 115 % of control
- T/C [4]: 115 % of control

SMILES: [Br][Sb]([Br])([c]1ccccc1)([c]1ccccc1)[c]1ccccc1
- T/C [11]: 91 % of control
- T/C [8]: 97 % of control
- T/C [12]: 90 % of control
- T/C [13]: 87 % of control

SMILES: O=c1[nH]cnc2nncnc12
- T/C (dose: 50.0 mg/kg/injection, schedule: Q01DX001 (ip), vehicle: carboxymethylcellulose (CMC)): 93 % of control

SMILES: COC(=O)c1ccc(OC(=O)Nc2cc(Cl)ccc2C)cc1
- T/C [14]: 106 % of control
- T/C [15]: 89 % of control

SMILES: CC1CCCC(NC(=O)N(CCCl)N=O)C1 (configuration not stated)
- T/C (dose: 8.0 mg/kg/injection, schedule: Q01DX001 (ip), vehicle: other): 109 % of control
- T/C (dose: 27.0 mg/kg/injection, schedule: Q01DX001 (ip), vehicle: other): 307 % of control
- T/C (dose: 31.0 mg/kg/injection, schedule: Q01DX001 (ip), vehicle: other): 170 % of control
- T/C (dose: 35.0 mg/kg/injection, schedule: Q01DX001 (ip), vehicle: other): 190 % of control
- T/C (dose: 42.0 mg/kg/injection, schedule: Q01DX001 (ip), vehicle: other): 348 % of control
- T/C (dose: 62.0 mg/kg/injection, schedule: Q01DX001 (ip), vehicle: other): 275 % of control and 361 % of control
- T/C (dose: 71.0 mg/kg/injection, schedule: Q01DX001 (ip), vehicle: other): 301 % of control
- T/C (dose: 93.0 mg/kg/injection, schedule: Q01DX001 (ip), vehicle: other): 307 % of control
- T/C (dose: 125.0 mg/kg/injection, schedule: Q01DX001 (ip), vehicle: other): 86 % of control
- T/C (dose: 286.0 mg/kg/injection, schedule: Q01DX001 (ip), vehicle: other): 88 % of control

SMILES: N#CC1(C#N)C(c2ccccc2)C1(C#N)C#N
- T/C [16]: 107 % of control
- T/C (dose: 6.25 mg/kg/injection, schedule: Q04DX003 (ip), vehicle: saline sonified): 102 % of control
- T/C [17]: 105 % of control
- T/C (dose: 12.5 mg/kg/injection, schedule: Q04DX003 (ip), vehicle: saline sonified): 113 % of control
- T/C [18]: 105 % of control
- T/C (dose: 25.0 mg/kg/injection, schedule: Q04DX003 (ip), vehicle: saline sonified): 96 % of control

SMILES: CCCCCSP(=S)(C(C)C)C(C)C
- T/C (dose: 100.0 mg/kg/injection, schedule: Q01DX001 (ip), vehicle: saline with Tween-80): 95 % of control
- T/C (dose: 200.0 mg/kg/injection, schedule: Q01DX001 (ip), vehicle: saline with Tween-80): 93 % of control
- T/C (dose: 400.0 mg/kg/injection, schedule: Q01DX001 (ip), vehicle: saline with Tween-80): 91 % of control

SMILES: O=C(O)c1ccc(CC2CC3CCC2C3)cc1 (configuration not stated)
- T/C [5]: 93 % of control
- T/C [6]: 91 % of control
- T/C [7]: 88 % of control

SMILES: CC(C)NC(N)=O
- T/C (dose: 87.5 mg/kg/injection, schedule: Q01DX009 (ip), vehicle: saline): 101 % of control
- T/C (dose: 175.0 mg/kg/injection, schedule: Q01DX009 (ip), vehicle: saline): 101 % of control
- T/C (dose: 350.0 mg/kg/injection, schedule: Q01DX009 (ip), vehicle: saline): 101 % of control

SMILES: CC1(C(Cl)(Cl)Cl)C=CC(=NOCC(=O)O)C=C1 (configuration not stated)
- T/C [12]: 98 % of control
- T/C [13]: 95 % of control
- T/C [19]: 98 % of control

SMILES: S=P(c1ccccc1)(c1ccccc1)P(=S)(c1ccccc1)c1ccccc1
- T/C [12]: 100 % of control
- T/C [13]: 92 % of control
- T/C [19]: 92 % of control

SMILES: C(=Nc1ccc(N=Cc2ccco2)cc1)c1ccco1
- T/C (dose: 87.5 mg/kg/injection, schedule: Q01DX009 (ip), vehicle: Klucel (hydroxypropylcellulose) (HPC)): 93 % of control
- T/C (dose: 175.0 mg/kg/injection, schedule: Q01DX009 (ip), vehicle: Klucel (hydroxypropylcellulose) (HPC)): 100 % of control
- T/C (dose: 350.0 mg/kg/injection, schedule: Q01DX009 (ip), vehicle: Klucel (hydroxypropylcellulose) (HPC)): 97 % of control

SMILES: O=C(/C=C/c1ccc([N+](=O)[O-])cc1)Nc1ccc(S(=O)(=O)F)cc1
- T/C [2]: 96 % of control
- T/C [8]: 94 % of control
- T/C [3]: 101 % of control
- T/C [9]: 89 % of control
- T/C [4]: 100 % of control
- T/C [10]: 88 % of control

SMILES: Clc1nc(Cl)c(Cl)[nH]1
- T/C [16]: 94 % of control
- T/C [17]: 93 % of control

SMILES: CC(C)c1ccccc1OS(=O)(=O)c1c(F)c(F)c(F)c(F)c1F
- T/C (dose: 6.25 mg/kg/injection, schedule: Q01DX001 (ip), vehicle: Klucel (hydroxypropylcellulose) (HPC)): 103 % of control
- T/C [16]: 108 % of control
- T/C (dose: 12.5 mg/kg/injection, schedule: Q01DX001 (ip), vehicle: Klucel (hydroxypropylcellulose) (HPC)): 97 % of control
- T/C [17]: 101 % of control
- T/C (dose: 25.0 mg/kg/injection, schedule: Q01DX001 (ip), vehicle: Klucel (hydroxypropylcellulose) (HPC)): 101 % of control
- T/C [18]: 103 % of control

SMILES: CN(C)C(=S)SCCOc1ccc(Cl)cc1Cl
- T/C (dose: 25.0 mg/kg/injection, schedule: Q04DX003 (ip), vehicle: Klucel (hydroxypropylcellulose) (HPC)): 95 % of control
- T/C (dose: 50.0 mg/kg/injection, schedule: Q04DX003 (ip), vehicle: Klucel (hydroxypropylcellulose) (HPC)): 98 % of control
- T/C (dose: 100.0 mg/kg/injection, schedule: Q01DX001 (ip), vehicle: Klucel (hydroxypropylcellulose) (HPC)): 96 % of control
- T/C (dose: 100.0 mg/kg/injection, schedule: Q04DX003 (ip), vehicle: Klucel (hydroxypropylcellulose) (HPC)): 101 % of control
- T/C (dose: 200.0 mg/kg/injection, schedule: Q01DX001 (ip), vehicle: Klucel (hydroxypropylcellulose) (HPC)): 100 % of control
- T/C (dose: 400.0 mg/kg/injection, schedule: Q01DX001 (ip), vehicle: Klucel (hydroxypropylcellulose) (HPC)): 104 % of control

SMILES: CC(=O)C1(C)Nc2cccc3cccc(c23)N1
- T/C [14]: 97 % of control
- T/C [15]: 106 % of control
- T/C (dose: 400.0 mg/kg/injection, schedule: Q01DX009 (ip), vehicle: saline with Tween-80): 96 % of control
